From article PMC9841576, “Characterisation of C101248: A novel selective THIK-1 channel inhibitor for the modulation of microglial NLRP3-inflammasome” (Neuropharmacology, 2023)

Columns and labels:
THIK-1 = target: T1, THIK-1 (Homo sapiens, UniProt Q9HB14); assay: Q-Patch automated electrophysiology, HEK-hTHIK-1 cells; assay type: cell-based
T1 construct: expressed in transfected cells
T1 sequence (Q9HB14 1-408): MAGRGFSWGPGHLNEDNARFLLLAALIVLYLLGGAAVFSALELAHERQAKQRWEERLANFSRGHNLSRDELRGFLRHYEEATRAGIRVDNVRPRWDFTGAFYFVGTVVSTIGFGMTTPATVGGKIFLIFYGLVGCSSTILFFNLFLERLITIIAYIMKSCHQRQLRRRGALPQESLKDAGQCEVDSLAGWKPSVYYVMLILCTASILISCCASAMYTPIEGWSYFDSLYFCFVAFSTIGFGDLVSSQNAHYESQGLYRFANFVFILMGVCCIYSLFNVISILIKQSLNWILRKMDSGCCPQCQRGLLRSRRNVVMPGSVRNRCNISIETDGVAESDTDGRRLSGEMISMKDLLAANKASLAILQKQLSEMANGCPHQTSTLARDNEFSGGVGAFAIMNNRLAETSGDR
Method: (§1) HEK-293 cells were transfected with human THIK-1, TREK-1, TWIK-2, or mouse THIK-1 cDNA cloned into pcDNA3.1, using either Fugene HD transfection reagent (Promega) or electroporation (MaxCyte STX instrument). Cells stably expressing the relevant genes were selected based on resistance to 500 μg/ml geneticin (Gibco). For human THIK-1 and TWIK-2 expressing cells, monoclonal lines were isolated by limited dilution cloning; mouse THIK-1 and human TREK-1 expressing cells were maintained as polyclonal pools. The HEK-293 pools and monoclones stably expressing the relevant genes were maintained in DMEM (Life Technologies), supplemented with 10% FCIII (HyClone, Fetal clone III) and 500 μg/ml geneticin. A CHO-Kv2.1 cell line was purchased from Millipore (accession NM_004975) and maintained in F12 (Life Technologies), supplemented with 10% FCSIII (Thermo Scientific) and 500 μg/ml geneticin (Life Technologies). For thallium flux assays, banks of frozen cell aliquots were prepared the day prior to assay, cells were thawed into media and seeded into PDL coated 384-well plates (Corning) at 25,000 (human/mouse THIK-1, TREK-1) or 30,000 (TWIK-2) cells/well (25 μl/well). CHO-Kv2.1 cells were seeded into non-PDL coated plates (Corning) at 5000 cells/well. […]
THIK-1 mediated currents were measured using the Q-Patch 48 automated electrophysiology platform (Sophion, Denmark). […]

TWIK-2 = target: T2, TWIK-2 (Homo sapiens, UniProt Q9Y257); assay: FLIPR thallium influx assay, HEK-hTWIK-2 cells; assay type: cell-based; details: HEK-hTWIK-2, at 30 μM, compared to TPA controls; read-out: inhibition of constitutive activity
T2 construct: expressed in transfected cells
Method: as §1, with “Technologies).” for “Technologies). For thallium flux assays, banks of frozen cell aliquots were prepared the day prior to assay, cells were thawed into media and seeded into PDL coated 384-well plates (Corning) at 25,000 (human/mouse THIK-1, TREK-1) or 30,000 (TWIK-2) cells/well (25 μl/well). CHO-Kv2.1 cells were seeded into non-PDL coated plates (Corning) at 5000 cells/well.”
A fluorescence-based thallium influx assay (Molecular Devices potassium assay kit) was used to monitor channel activity. […] Using a fluorescent imaging plate reader (FLIPR) tetra plate reader, 15 μl thallium stimulus solution was added to the cell plate and the fluorescence signal recorded every second for 1 min (excitation: 470–495 nm, emission: 515–575 nm).

T2 sequence (Q9Y257 whole entry): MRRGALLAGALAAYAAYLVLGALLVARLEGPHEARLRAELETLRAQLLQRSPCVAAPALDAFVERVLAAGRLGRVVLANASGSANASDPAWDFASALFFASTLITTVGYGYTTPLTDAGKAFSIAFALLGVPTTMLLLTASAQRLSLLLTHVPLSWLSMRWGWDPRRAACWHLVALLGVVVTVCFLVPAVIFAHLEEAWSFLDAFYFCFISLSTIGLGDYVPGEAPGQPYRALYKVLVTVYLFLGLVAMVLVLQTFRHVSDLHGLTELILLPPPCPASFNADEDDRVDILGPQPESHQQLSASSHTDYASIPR

What does the source list for `Nc1nonc1-c1nc2ccccc2n1Cc1ccncc1` [C101248]?
maximum inhibition (Q-Patch) (THIK-1; HEK-hTHIK-1): 94%; IC50 (THIK-1; HEK-hTHIK-1, step to +40 mV, normalised to TPA, read-out: IC50, inhibition of basal currents (Q-Patch)): 147 nM; inhibition at 30 µM (TWIK-2): 7%
